Results on one compound are retold here after patent publication US3968207A, “Method of controlling fleas and ticks on cats and dogs” (priority 1975, dated 1976).

SMILES strings stand for the structures.

This assay relates to Ctenocephalides felis. Description: 2% powder against experimental flea infestations on cats. The class given is in vivo. Particulars: 60 mg/kg as 2% powder. The protocol:
An experiment was conducted using O,O,O',O'-tetramethyl O,O'-thiodi-p-phenylene phosphorothioate which was prepared from a 25% concentrate diluted with talc so the final powder was 2% drug. Prior to the start of the test 23 cats were classified according to sex, age, hair length and color and divided into five groups. One of these groups was then randomly selected to be the controls and the other groups were assigned for treatment in a random order. The amount of 2% drug dust applied to each cat was calculated prior to treatment to give a dose rate of 60 mg. drug/kg. The duster was weighed before treating each cat and at intervals during dusting to get as near the desired dose as possible. […] Table VII summarizes the results obtained up to 48 days after treatment.

Turning to `COP(=S)(OC)Oc1ccc(Sc2ccc(OP(=S)(OC)OC)cc2)cc1` [O,O,O',O'-tetramethyl O,O'-thiodi-p-phenylene phosphorothioate], the control is 64% (fifth week), 100% (for three weeks), 90% (fourth week) and 40% (sixth week). Moreover, where the note is “for four weeks”, the “residual control against C. felis on cats” value is reported as “excellent residual control”.
